# Measurements reported in publication PMC4168161, “A novel approach for the discovery of chemically diverse anti-malarial compounds targeting the Plasmodium falciparum Coenzyme A synthesis pathway” (Malaria Journal, 2014).
# Experiments:
# [1] = tested on: Plasmodium falciparum strain 3D7; assay: Plasmodium falciparum growth inhibition imaging assay; type: cell-based; conditions: for SI (selectivity index): HEK293 IC50 value divided by P. falciparum IC50 value; for IC50: P. falciparum 3D7, 72 hr, n = 3
# Description: In vitro parasite culture was maintained in RPMI with 10 mM Hepes (Life Technologies), 50 μg/ml hypoxanthine (Sigma) and 5 mg/ml AlbuMAX II® (Life Technologies). Human O + erythrocytes were obtained from the Australian Red Cross Blood Service (Agreement No: 13-04QLD-09). The parasites were maintained at 2-8% parasitaemia (% P) at 5% haematocrit (% H), incubated at 37°C, 5% CO2, 5%O2 and 90% N2 and 95% humidity. The well-established P. falciparum imaging assay was modified to allow assessment of chemical rescue with CoA. In brief, sorbitol (5% w/v) synchronization was performed twice, approximately 8 hr apart, on each synchronization day for two consecutive ring cycles, i.e., on day 1 and 3 of assay preparation. On day 2 the culture was split to approximately 2% trophozoite parasitaemia. On day 4 the culture was split to 1-1.5% trophozoite parasitaemia, which yielded approximately 8% ring parasitaemia after 48 hr (on day 5, i.e., the day of the assay set-up). Compound stocks (10 mM in 100% DMSO) were diluted 1:25 in sterile water, less than 24 hr prior to use. An additional 1:10 dilution was performed, resulting in a 1:250 overall compound dilution and a final DMSO concentration of 0.4%. For initial screening, compounds were tested at a final 2 μM concentration. For dose response curves of the active compounds, a semi-logarithmic serial dilution (containing three data points per log) was prepared at 40 μM top concentration for test compounds and 2 μM for the positive control, artemisinin. The known P. falciparum CoA synthesis inhibitor, panthenol, was prepared as a 100 mM solution in 4% DMSO. The final concentration of the dose response curve of panthenol started at 10 mM and was serially diluted down to 100 nM. CoA was dissolved in water. The final CoA concentration for optimal rescue results was determined for each CoA batch and ranged between 0.8-2 mM. Five μl of the 1:25 diluted test compound or control solutions were added to 384-well CellCarrier imaging plates (PerkinElmer). For the chemical rescue, 5 μl of CoA solution were added to ‘rescue’ wells and 5 μl water to all control and reference wells, respectively. Parasite culture was added to a final concentration of 1% parasitaemia (% P) and 0.3% haematocrit (% H). Plates were incubated for 72 hr at 37°C, 5% CO2 and 95% humidity. On day 8 the permeabilization and nuclear staining buffer was prepared in PBS containing 10 μg/ml saponin, 0.01% triton X, 5 mM EDTA (all: Sigma) and 0.5 μg/ml 4′,6-diamidino-2-phenylindole (DAPI; Life Technologies). The plates were left for at least 4 hr (typically overnight), before confocal imaging on an Opera™ High Content Screening Platform (PerkinElmer) at 405 nm excitation with a 20x water objective. Automated primary image analysis was performed concurrent with the imaging process, utilizing an Acapella® software (PerkinElmer) script to determine the number of parasites based on object size and fluorescence intensity. Determination of the % growth compared to controls (2 μM artemisinin as positive and 0.4% DMSO as negative control) was performed in Microsoft® Excel 2010. Statistical analysis including IC50 determination and graphical output was performed in GraphPad Prism® 5 using non-linear regression variable slope curve fitting.
# [2] = tested on: HEK293 cells; assay: HEK293 viability assay (resazurin); type: cell-based, human; conditions: HEK293, 72 hr, top concentration 40 μM, n = 3
# Description: To assess cytotoxicity of compounds in dose response, a resazurin-based assay was utilized to determine cell viability. In brief, HEK293 cells were grown in DMEM medium (Life Technologies) containing 10% foetal calf serum (FCS; Gibco). Cells were trypsinized, counted and seeded at 2,000 cells per well in 45 μl media into TC-treated 384-well plates (Falcon) and left to adhere overnight at 37°C, 5% CO2 and 95% humidity.
# Test compounds were prepared as described above, to give a top final test concentration of 40 μM, 0.4% DMSO. Plates were incubated for 72 hr at 37°C, 5% CO2 and 95% humidity, then the media was removed and replaced by 35 μl of 44 μM resazurin in DMEM without FCS. The plates were incubated for another 4-6 hr at 37°C, 5% CO2 and 95% humidity before reading on an EnVision® Plate Reader (PerkinElmer) using fluorescence excitation/emission settings of 530 nm/595 nm. Determination of the% growth compared to controls (40 μM puromycin as positive and 0.4% DMSO as negative control) was performed in Microsoft® Excel 2010. Statistical analysis including IC50 determination and graphical output was performed in GraphPad Prism® 5 using nonlinear regression variable slope curve fitting.
# [3] = tested on: 3D7 parasites; assay: Time course for parasite stage affected and phenotype (Giemsa smears); type: cell-based, Plasmodium falciparum; conditions: for parasite stage of action / phenotype: compound at IC80, 0-48 hr
# Description: The principle of the P. falciparum imaging assay described above was used, with the exception that the parasite synchronization was adjusted to yield parasites synchronized to a 2-hr window as established in-house. In brief, sorbitol synchronization was performed twice (approximately 8 hr apart) on day 1 and only once on day 3 (around 10.00). Schizonts observed on day 4 were left to mature and when rings were first observed, the mature schizonts were isolated using a MACS® column (Miltenyi Biotec). The purified schizonts were incubated for 2 hr at 37°C, 5% CO2 and 5% O2 and 90% N2 on a shaker. The obtained 0-2 hr old ring stage parasites were isolated by removing the remaining schizonts by flow through a MACS® column and the highly synchronized rings obtained were seeded in the assay plates with the compounds as described above. At each time point, one whole columns (16 wells) of identically treated parasites, i.e., 0.4% DMSO as control, compound at its individual IC80 or compound at IC80 plus CoA, were pooled and centrifuged. A smear was made from the pellet and stained with Giemsa (Sigma) for assessment the phenotype of treated parasites with or without supplementation of 0.8 mM CoA in comparison to DMSO controls.
# The parasite viability assay used above is an endpoint assay that spans two development cycles of the parasite. To investigate the parasite stage of action of the identified compounds and the phenotype of compound treated parasites, a light microscopy-based time course study was undertaken. The seven compounds of submicromolar activity were added at time point t0 at their respective IC80 concentrations, with and without the addition of 0.8 mM CoA. The 3D7 parasites used in this experiment were age synchronized to within a 2-hr window of the ring stage. Due to assay preparation time, the parasite age at t0 therefore ranged from 0.5 hr to 2.5 hr.
# At t0, t18, t24 and t48 parasite cultures for all conditions were centrifuged and Giemsa-stained blood smears were prepared. The 18-hr treatment time point was specifically chosen, since it was expected to see the transition between ring and trophozoite stage in control cultures around this time point (parasite age range 18.5 hr to […]). Therefore any delay in the transition from ring to trophozoite stage under treatment with the compounds was expected to be discernible at this time point.
# [4] = compound at IC80 plus 0.8 mM CoA
# [5] = compound at IC80 plus 0.8 mM CoA, t24
# [6] = compound at IC80 plus 0.8 mM CoA, t48
SMILES,SI (selectivity index) [1],IC50 [1] [µM],IC50 [2] [µM],parasite stage of action / phenotype [3],"dead or dying parasites (relative parasitaemia) ([3]; compound at IC80, t24)","dead or dying parasites (relative parasitaemia) ([3]; compound at IC80, t48) [%]","CoA rescue of stage progression / phenotype [3, 4]","dead or dying parasites (relative parasitaemia) [3, 5] [%]","dead or dying parasites (relative parasitaemia) [3, 6]",compound-treated parasites able to progress from the ring to the trophozoite stage ([3]; compound at IC80),SI (selectivity index) ([1]; listed as MMV000304),"ring form parasites showing abnormal morphologies ([3]; compound at IC80, t48)","death rate of parasites (relative parasitaemia) ([3]; compound at IC80, from t24 onwards) [%]","abnormal trophozoites as share of all counted living trophozoites ([3]; compound at IC80, t48) [%]","relative parasitaemia of trophozoites showing abnormal morphology ([3]; compound at IC80, t48) [%]","relative parasitaemia of trophozoites showing abnormal morphology ([3]; compound at IC80, t24) [%]","relative parasitaemia of dead or dying trophozoites ([3]; compound at IC80, t48) [%]"
CCc1ccc(Nc2cc(C)c3ccc(O)cc3n2)cc1.Cl [MMV000570/C614-0191],~ 54,0.74,~40,affects both the development of the ring and trophozoite stage of the parasite,around 28%,~20,Addition of CoA did not alleviate this developmental delay,13.4,8.3%,,,,,,,,
Cc1csc(Sc2ncnc3sccc23)n1 [Amb180780],~ 333,0.12,~40,arrest parasite development at the ring stage,,28.6,rescued very well by CoA addition,20,control levels,Less than 13%,,,,,,,
CCOc1ccc(Nc2c3ccccc3nc3ccccc23)cc1.Cl [MMV000304/Amb636705],0.8,1.21,1,,,,,,,,no parasite specificity,,,,,,
CC(C)=NOC(=O)c1c(C)noc1-c1snnc1C [SPB03400],,0.45,> 40,No change in the relative parasitaemia of rings or trophozoites compared to the untreated controls,,,,,,,,around 50%,,,,,
CC(=O)c1ccc2c3c(onc13)-c1ccccc1C2=O [Amb3377585],18,0.15,2.75,killing both the ring and the trophozoite stage of the parasite from approximately t24,,,"very good rescue of parasite development, death rates and morphology",,,,,,49,51,30.5,,
COc1ccc2c(=O)cc(C(Cl)(Cl)Cl)oc2c1 [MMV665820/5534045],6.2,0.58,3.6,main compound action is on the trophozoite stage,,,CoA addition effectively rescued both parasite development and morphology,,,,,,,,26.6,42.9,13.8
CC1=CC(=O)C(C(C)C)=C/C1=N/OS(=O)(=O)c1ccccc1 [STK 740987],> 105,0.38,> 40,no change in the stage composition of rings and trophozoites compared to the controls,around 16%,,,,,,,,,,,,
